Earlier results as cited in US20110256072A1, “FOOD AND COMPOSITION EACH COMPRISING PHOSPHORYLATED SACCHARIDE, POLYPHENOL AND FLUORIDE” (EZAKI GLICO CO., LTD., priority 2008, published 2011).
Where “and” joins values, the source holds several entries; their conditions need not be identical. Identical values can stand only once. Like-named read-outs stand apart in the source and are kept apart here.

Tested on: dental caries

Row | SMILES | Inhibition rate (in vivo) | also measured
1 | [F-].[Na+] [2% Sodium fluoride solution, Sodium fluoride] | 20-40% | –
2 | [F-].[Na+] [NaF: 0.05% every day method, NaF] | – | Inhibition rate (Fluoride mouth washing method, 226 ppm, Permanent tooth): 20-50%
3 | [F][Sn][F] [SnF2: 8% Solution, SnF2] | – | Inhibition rate (Local application to dental surface, 19,400 ppm, Permanent tooth): 20-50%
4 | [F-].[Na+] [Sodium fluoride] | 25-50% and 20-40% and ~30% | –
